Experimental data reported in patent publication US20090211893A1, “Photo-Activatable Amino Acids” (priority 2005, published 2009).

What was measured:
COS7 cells [1] = assay: Competition of [1-14C]photo-Met incorporation by natural amino acids; assay type: cell-based, monkey; conditions: 1.7 mM [1-14C]photo-Met, 3 mM competing amino acid
Procedure: FIG. 4: Specificity of incorporation and cross-linking by photo-Met and photo-Leu. COS7 cells were transfected with HA-tagged human PGRMC1 and were grown in LM-4 in the absence or presence of photo-Leu (A) or photo-Met (B) with addition of 3 mM of the indicated competing amino acid. cross-linked products formed after UV-irradiation were detected by SDS-PAGE followed by western blotting against the HA-epitope. (C) COS7 cells were grown in the presence of 1.7 mM [1-^14C]photo-Met, a constant trace amount of [^3H]Phe and 3 mM of competing unlabeled amino acids as indicated in the legend. Protein was precipitated and protein-bound radioactivity was determined by scintillation counting. […] The control value obtained in the absence of competing amino acid (con) is set to 100. Data are average±SD of triplicate determinations.
COS7 cells were grown for 20 h in LM-2 containing radiolabeled amino acids ([1-^14C]photo-Met and [^3H]Phe). Cells were washed 6 times with PBS and lysed in 0.5% Triton X-100, 0.2% sodium deoxycholate. Aggregated DNA was removed, protein was precipitated^43, the pellet was redissolved in 0.3 ml 0.5% SDS and subjected to a second round of precipitation. […] Fractions of 3 ml were collected and assayed for absorbance at 350 nm, radioactivity by scintillation counting, and amino groups by the fluorescamine method^44. […]

COS7 cells [2] = assay: Incorporation of [1-14C]photo-Met and [3H]Phe into newly synthesized protein; assay type: cell-based, monkey
Procedure: Cells were washed 6 times with PBS and lysed in 0.5% Triton X-100, 0.2% sodium deoxycholate. Aggregated DNA was removed, protein was precipitated^43, the pellet was redissolved in 0.3 ml 0.5% SDS and subjected to a second round of precipitation. […] The dried pellet was redissolved and processed for scintillation counting (data of Table 1 and FIG. 4b) or processed as follows for amino acid analysis (FIG. 2b): the pellet was dissolved in 600 µl 50 mM NH4HCO3, 0.5% SDS, 3 mM CaCl2 containing 0.25 mg pronase (Roche) followed by incubation at 37° C. for 20 h. The sample was lyophilized, dissolved in 600 μl of 7 N HCl containing 4 mg of glutamic acid and 6 mg of photo-Met and heated to 70° C. for 24 h. A Dowex 50WX8 column (1.6×24 cm) was prepared^18 and equilibrated with 0.1 M sodium citrate pH 3.8. The sample was concentrated to 50 μl in a speed-vak, diluted to 1 ml with 0.1 M sodium citrate pH 3.8, and loaded onto the column. The column was eluted at 24° C. at a flow rate of 20 ml/h with 70 ml 0.1 M sodium citrate pH 3.8, 26 ml 0.1 M sodium citrate pH 4.3 and 100 ml of 0.1 M sodium citrate pH 4.5. Fractions of 3 ml were collected and assayed for absorbance at 350 nm, radioactivity by scintillation counting, and amino groups by the fluorescamine method^44.
To decrease competition for activation by tRNA synthetases, media devoid of the structurally related amino acids Leu and Met (LM-2) or, for some experiments, devoid of Leu, Met, Ile and Val (LM-4) were used. Proteins incorporated radioactivity as shown by autoradiography after separation by SDS-PAGE (FIG. 2a, lane 3). […] 88% of the radioactivity in the labeled proteins was intact [1-^14C]photo-Met (FIG. 2b, photo-Met). A small peak eluting slightly earlier than glutamic acid (FIG. 2 B, Glu) contained 7% of the radioactivity. This peak was also observed if free [1-^14C]photo-Met was heated with HCl under the conditions of the hydrolysis (data not shown) and therefore represents a product of thermal decomposition of the amino acid. Under the conditions employed, radioactivity originating from degradation/re-integration would be expected to appear as aspartate and glutamate (oxidative release of [^14C]CO2, metabolism via pyruvate carboxylase, citric acid cycle and transamination to Gln and Asn that will be hydrolyzed to Glu and Asp by hot HCl). However, no radioactivity was incorporated via this pathway. We conclude that at least 95% of incorporated radioactivity represents intact [1-^14C]photo-Met. To obtain quantitative data on the frequency of incorporation of photo-Met into newly synthesized protein, we performed co-labeling with [1-^14C]photo-Met and [^3H]Phe. […] Two in three hundred amino acids in newly synthesized protein will be photo-Met.

## CC1(CCC(N)[14C](=O)O)N=N1 (racemic) [[1-^14C]photo-Met, DL-[1-^14C]-2-amino-5,5′-azi-hexanoic acid]
COS7 cells [1]
  competition of incorporation by Met and Leu: strongly competed
  effect of Val and Ile on incorporation: slightly stimulated incorporation
COS7 cells [2]; COS7 cells grown 22 h in LM-2
  Relative frequency (of total amino acids in newly synthesized protein): 0.7%
COS7 cells [2]; COS7 cells grown 22 h in LM-2, average ± SD of triplicate
  Incorporated amino acid: 0.50 ± 0.05 nmol/dish
COS7 cells [2]; COS7 cells grown 22 h in LM-2 with [3H]Phe and [1-14C]photo-Met, average ± SD of triplicate
  Protein-bound activity: 2.34 ± 0.23 nCi/dish
COS7 cells [2]; co-labeling with [1-14C]photo-Met and [3H]Phe
  frequency of incorporation relative to that of phenylalanine: 14%
